Structures can show the parent of a compound that is named as a salt.
Assays:
db/db mice = experiment: Plasma glucose, compound in chow, diabetic mice; assay type: in vivo, mouse (C57 B1/KsJ db/db)
Protocol: (§1) The compounds of this invention were tested for hypoglycemic and anti-obesity activity according to the following procedure.
(§2) Obese mice (C57 B1/6J (ob/ob)), and/or diabetic mice (C57 B1/KsJ (db/db)) were obtained from Jackson Laboratories, Bar Harbor, Maine. Obese rats (fa/fa) were obtained from Charles River Laboratories, Wilmington, Mass. Obese mice were 8 weeks of age and diabetic mice were 9 weeks of age at the start of the test. Obese rats were 12-14 weeks of age at the start.
(§3) The test compounds were dissolved in methanol, mixed with powdered Purina rodent chow on a weight of compound to weight of chow basis and thoroughly dried.
(§4) Groups of 6 control mice or rats received vehicle (methanol) treated chow.
(§5) Groups of 6 test mice were fed ad libitum for up to seven weeks and food consumption was measured daily by weighing the food bins before and after the addition of fresh chow. Thus, a 40 g mouse, fed the test compound at a concentration of 0.02 percent of the diet, would receive a dose of 20 mg/kg/day if it ate 4 g of chow per day.
(§6) The mice or rats were weighed before the first treatment and once at the end of each indicated treatment period.
Blood samples were collected before the first treatment and once at the end of each indicated treatment period by retro-orbital puncture using heparinized capillary tubes.
Plasma was separated by centrifugation in a Beckman microfuge for 5 minutes. Plasma glucose concentrations were determined with the Beckman glucose analyzer which uses a glucose oxidase method.

ob/ob mice = experiment: Change in weight and food consumption, compound in chow, obese mice; assay type: in vivo, mouse (C57 B1/6J ob/ob)
Protocol: as §1, §2, §3, §4, §5, §6

fa/fa rats = experiment: Change in weight and food consumption, compound in chow, obese rats; assay type: in vivo, rat (fa/fa)
Protocol: as §1, §2, §3, §4
Groups of 6 test rats were fed 25 g of chow per day for one month. Except for the first day or two, they consumed all their food each day. When these animals are fed ad libitum, they consume 26 g of chow per day and the compounds have no effect on food consumption.
as §6

β1-receptors = target: T1, β1-receptors (Cavia porcellus, UniProt H0W3H1); experiment: Effect on heart rate of isolated right atria (β1-effect); parameters: species or system guinea pig
T1 construct: from tissue; host or cells: guinea pig right atria
T1 sequence (H0W3H1 1-470): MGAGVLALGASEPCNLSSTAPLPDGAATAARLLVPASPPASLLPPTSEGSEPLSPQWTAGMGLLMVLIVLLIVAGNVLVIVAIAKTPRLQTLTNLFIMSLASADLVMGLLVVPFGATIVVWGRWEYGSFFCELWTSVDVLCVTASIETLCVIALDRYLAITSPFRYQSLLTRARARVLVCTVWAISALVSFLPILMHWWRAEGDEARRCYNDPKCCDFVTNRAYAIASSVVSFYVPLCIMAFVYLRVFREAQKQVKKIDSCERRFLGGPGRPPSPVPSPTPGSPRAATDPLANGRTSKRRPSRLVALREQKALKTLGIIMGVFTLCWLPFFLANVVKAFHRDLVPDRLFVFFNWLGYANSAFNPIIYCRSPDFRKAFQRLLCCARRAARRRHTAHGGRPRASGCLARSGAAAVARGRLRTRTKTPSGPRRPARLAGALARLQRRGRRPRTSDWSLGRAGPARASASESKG
Protocol: (§7) β-Adrenergic receptors can be divided into β1, β2 and β3 -subtypes. Activation of β1 -receptors invokes increases in heart rate while activation of β2 -receptors stimulates glycogen breakdown in muscle and thereby prevents glycogen synthesis. Activation of β3 -receptors stimulates lipolysis (the breakdown of adipose tissue triglycerides to glycerol and free fatty acids), and thereby promotes the loss of fat mass.
Selectivity of a compound was determined using the following procedures. The effect on heart rate (β1 -effect) was determined using isolated right atria. […] The right atria were dissected and clamped at one end to a tissue holder and electrode assembly (MRA Corp.) and tied at the other end to a force-displacement transducer (Gould-Statham, Burco). The tissues were maintained at 32° C. in a 50 ml capacity glass chamber (MRA Corp.) preloaded with 0.5 g tension. Heart rate was monitored by a Grass polygragh. […] The increase in heart rate was calculated and considered to be the maximum response for that tissue. The tissues were then washed and allowed to equilibrate for 90 minutes. Cumulative concentration-response curves were then determined for each compound or vehicle. All responses were measured 5 minutes post-exposure.

β2-receptors = target: T2, β2-receptors (Mus musculus, UniProt P18762); experiment: Inhibition of insulin-mediated incorporation of 14C-glucose into glycogen in isolated soleus muscle (β2-effect)
T2 construct: Soleus muscle from mice were dissected; from tissue; host or cells: mouse soleus muscle
T2 sequence (P18762 whole entry): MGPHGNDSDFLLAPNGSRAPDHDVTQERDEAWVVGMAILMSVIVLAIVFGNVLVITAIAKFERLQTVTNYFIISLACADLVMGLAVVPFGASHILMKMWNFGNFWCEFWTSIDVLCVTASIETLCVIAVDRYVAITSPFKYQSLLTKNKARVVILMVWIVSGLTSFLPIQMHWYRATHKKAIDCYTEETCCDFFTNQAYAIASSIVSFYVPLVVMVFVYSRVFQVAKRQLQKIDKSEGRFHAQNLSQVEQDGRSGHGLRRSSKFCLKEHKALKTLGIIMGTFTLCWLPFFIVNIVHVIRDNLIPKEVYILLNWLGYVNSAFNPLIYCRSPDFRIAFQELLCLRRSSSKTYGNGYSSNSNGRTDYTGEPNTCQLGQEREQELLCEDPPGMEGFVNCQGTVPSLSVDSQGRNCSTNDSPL
Protocol: as §7
The β2 -effect of the compounds was determined by their ability to inhibit the insulin-mediated incorporation of ^14 C-glucose into glycogen in isolated muscle. Soleus muscle from mice were dissected, tied at each end, and placed in a clamp to maintain tension. The clamped muscle was added to a vial that contained 2 ml of KHB with 1.5% bovine serum albumin, 0.3 mU/ml insulin, 5 mM (U^-14 C) glucose, and the appropriate additions of compound or vehicle. The vial was gassed with 95% O2 -5% CO2, capped, and the tissue incubated for one hour in a rotating water bath at 37° C. The muscle was then removed, rinsed in ice-cold saline, blotted and weighed. It was then added to 1 ml of 30% KOH containing 5 mg/ml of oyster glycogen, boiled for 10 minutes, and 0.4 ml of 2% Na2 SO4 and 3.2 ml of 100% ethanol added. After standing overnight at 4° C., the glycogen was pelleted by centrifugation, washed once with 66% ethanol, and repelleted. The pellet was dissolved in 1 ml of water and the amount of radioactivity present determined by liquid scintillation.

[1] = dose 0.0005 % wt of chow, week 1
[2] = dose 0.002 % wt of chow, week 1
[3] = dose 0.005 % wt of chow, week 1
[4] = dose 0.002 % wt of chow, week 2
[5] = dose 0.002 % wt of chow, week 3
[6] = dose 0.002 % wt of chow, week 4

## COC(=O)C1(C(=O)OC)Oc2ccc(C[C@@H](C)NC[C@H](O)c3cccc(Cl)c3)cc2O1 (stereo in doubt) [CL1, (R* R*)-(±)-5-(2-((2-(3-chlorophenyl)-2-hydroxyethyl)amino)propyl)-1,3-benzodioxole-2,2-dicarboxylic acid, dimethyl ester hydrobromide]
db/db mice; dose 0.0005 % wt of chow, week 0 (before treatment)
  Plasma Glucose Levels: 452 mg/100 ml
db/db mice; [1]
  Plasma Glucose Levels: 162 mg/100 ml
db/db mice; dose 0.0005 % wt of chow, week 5
  Plasma Glucose Levels: 164 mg/100 ml
db/db mice; dose 0.0005 % wt of chow, week 7
  Plasma Glucose Levels: 17 mg/100 ml
db/db mice; dose 0.002 % wt of chow, week 0 (before treatment)
  Plasma Glucose Levels: 453 mg/100 ml
db/db mice; [2]
  Plasma Glucose Levels: 151 mg/100 ml
db/db mice; dose 0.002 % wt of chow, week 5
  Plasma Glucose Levels: 150 mg/100 ml
db/db mice; dose 0.002 % wt of chow, week 7
  Plasma Glucose Levels: 16 mg/100 ml
db/db mice; dose 0.005 % wt of chow, week 0 (before treatment)
  Plasma Glucose Levels: 447 mg/100 ml
db/db mice; [3]
  Plasma Glucose Levels: 148 mg/100 ml
db/db mice; dose 0.005 % wt of chow, week 5
  Plasma Glucose Levels: 138 mg/100 ml
db/db mice; dose 0.005 % wt of chow, week 7
  Plasma Glucose Levels: 18 mg/100 ml
ob/ob mice; dose 0.0005 % wt of chow
  Average Daily Food Consumption: 5.6 g/animal
ob/ob mice; [1]
  Change in weight: 0.5 grams
ob/ob mice; dose 0.0005 % wt of chow, week 2
  Change in weight: 2.2 grams
ob/ob mice; dose 0.0005 % wt of chow, week 3
  Change in weight: 3.2 grams
ob/ob mice; dose 0.0005 % wt of chow, week 4
  Change in weight: 5.2 grams
ob/ob mice; dose 0.002 % wt of chow
  Average Daily Food Consumption: 5.6 g/animal
ob/ob mice; [2]
  Change in weight: -0.3 grams
ob/ob mice; [4]
  Change in weight: 1.1 grams
ob/ob mice; [5]
  Change in weight: 1.6 grams
ob/ob mice; [6]
  Change in weight: 3.2 grams
ob/ob mice; dose 0.005 % wt of chow
  Average Daily Food Consumption: 5.8 g/animal
ob/ob mice; [3]
  Change in weight: -1.1 grams
ob/ob mice; dose 0.005 % wt of chow, week 2
  Change in weight: -0.7 grams
ob/ob mice; dose 0.005 % wt of chow, week 3
  Change in weight: -0.2 grams
ob/ob mice; dose 0.005 % wt of chow, week 4
  Change in weight: 1.6 grams
fa/fa rats; dose 0.0006 % wt of chow
  Average Daily Food Consumption: 25 g/animal
fa/fa rats; dose 0.0006 % wt of chow, week 1
  Change in weight: 14 grams
fa/fa rats; dose 0.0006 % wt of chow, week 2
  Change in weight: 20 grams
fa/fa rats; dose 0.0006 % wt of chow, week 3
  Change in weight: 27 grams
fa/fa rats; dose 0.0006 % wt of chow, week 4
  Change in weight: 26 grams
fa/fa rats; dose 0.002 % wt of chow
  Average Daily Food Consumption: 25 g/animal
fa/fa rats; [2]
  Change in weight: 1 grams
fa/fa rats; [4]
  Change in weight: 2 grams
fa/fa rats; [5]
  Change in weight: 3 grams
fa/fa rats; [6]
  Change in weight: 4 grams
fa/fa rats; dose 0.006 % wt of chow
  Average Daily Food Consumption: 25 g/animal
fa/fa rats; dose 0.006 % wt of chow, week 1
  Change in weight: 10 grams
fa/fa rats; dose 0.006 % wt of chow, week 2
  Change in weight: 4 grams
fa/fa rats; dose 0.006 % wt of chow, week 3
  Change in weight: -15 grams
fa/fa rats; dose 0.006 % wt of chow, week 4
  Change in weight: -8 grams
β1-receptors
  EC50: 14 nM
β2-receptors
  EC50: 800 nM

From US5373020A, “Substituted 5-(2-((2-aryl-2-hydroxyethyl)amino)propyl)-1,3-benzodioxoles” (American Cyanamid Company, priority 1993, dated 1994)
